According to publication PMC5218480 (PLoS ONE, 2017):

Tested on: MV-4-11 cells
Assay: Gene expression microarray analysis (Affymetrix PrimeView) and GSEA
Format: cell-based, human
Set-up: RFU PODN (11730768_x_at) / Fold change /veh PODN (11730768_x_at) / RFU LINC00158 (11744669_a_at) / Fold change /veh LINC00158 (11744669_a_at) / RFU DUSP10 (11751237_a_at) / Fold change /veh DUSP10 (11751237_a_at) / RFU ID3 (11757404_x_at) / Fold change /veh ID3 (11757404_x_at) / RFU PLEKHG5 (11737974_s_at) / Fold change /veh PLEKHG5 (11737974_s_at) / RFU LRRC4B (11730491_at) / Fold change /veh LRRC4B (11730491_at) / RFU GIMAP4 (11747438_a_at) / Fold change /veh GIMAP4 (11747438_a_at) / RFU KRT8 (11758183_x_at) / Fold change /veh KRT8 (11758183_x_at) / RFU CNN1 (11734310_a_at) / Fold change /veh CNN1 (11734310_a_at) / RFU VPS37D (11726825_at) / Fold change /veh VPS37D (11726825_at) / RFU C10orf10 (11716522_x_at) / Fold change /veh C10orf10 (11716522_x_at) / RFU KIR2DL2 /// KIR2DL4 /// KIR2DL5A /// KIR2DL5B /// KIR2DS1 /// KIR2DS2 /// KIR2DS3 /// KIR2DS4 /// KIR3DL3 /// KIR3DL3 /// KIR3DS1 (11738374_at) / Fold change /veh KIR2DL2 /// KIR2DL4 /// KIR2DL5A /// KIR2DL5B /// KIR2DS1 /// KIR2DS2 /// KIR2DS3 /// KIR2DS4 /// KIR3DL3 /// KIR3DL3 /// KIR3DS1 (11738374_at) / RFU C1QL1 (11718748_at) / Fold change /veh C1QL1 (11718748_at) / RFU TMPRSS4 (11747572_a_at) / Fold change /veh TMPRSS4 (11747572_a_at) / RFU HAMP (11756126_x_at) / Fold change /veh HAMP (11756126_x_at) / RFU RNFT2 (11725882_a_at) / Fold change /veh RNFT2 (11725882_a_at) / RFU NR4A2 (11747474_a_at) / Fold change /veh NR4A2 (11747474_a_at) / RFU ABCC12 (11746883_a_at) / Fold change /veh ABCC12 (11746883_a_at) / RFU TMEM136 (11760407_x_at) / Fold change /veh TMEM136 (11760407_x_at) / RFU CLDN22 /// WWC2 (11732394_at) / Fold change /veh CLDN22 /// WWC2 (11732394_at) / RFU HLA-DPB1 (11760878_x_at) / Fold change /veh HLA-DPB1 (11760878_x_at) / RFU SPINT1 (11716480_a_at) / Fold change /veh SPINT1 (11716480_a_at) / RFU GAP43 (11754022_s_at) / Fold change /veh GAP43 (11754022_s_at) / RFU A4GNT (11735810_at) / Fold change /veh A4GNT (11735810_at) / RFU PRB3 (11715151_x_at) / Fold change /veh PRB3 (11715151_x_at) / RFU TUBB4B (11761932_at) / Fold change /veh TUBB4B (11761932_at) / RFU CAPN14 (11732068_a_at) / Fold change /veh CAPN14 (11732068_a_at) / RFU TMCC2 (11721928_a_at) / Fold change /veh TMCC2 (11721928_a_at) / RFU IRGQ (11745062_a_at) / Fold change /veh IRGQ (11745062_a_at) / RFU FAM174B (11720279_a_at) / Fold change /veh FAM174B (11720279_a_at) / RFU TMPRSS4 (11748680_a_at) / Fold change /veh TMPRSS4 (11748680_a_at) / RFU FAM212B (11763350_a_at) / Fold change /veh FAM212B (11763350_a_at) / RFU PLEKHG5 (11743358_a_at) / Fold change /veh PLEKHG5 (11743358_a_at) / RFU ZSCAN30 (11745921_a_at) / Fold change /veh ZSCAN30 (11745921_a_at) / RFU CMKLR1 (11741424_a_at) / Fold change /veh CMKLR1 (11741424_a_at) / RFU LOC101060620 /// MAPK8IP1 (11723275_at) / Fold change /veh LOC101060620 /// MAPK8IP1 (11723275_at) / RFU SPTSSB (11747773_x_at) / Fold change /veh SPTSSB (11747773_x_at) / RFU PRSS12 (11739890_at) / Fold change /veh PRSS12 (11739890_at) / RFU BIN1 (11741810_x_at) / Fold change /veh BIN1 (11741810_x_at) / RFU WNT11 (11732464_a_at) / Fold change /veh WNT11 (11732464_a_at) / RFU C10orf10 (11716521_a_at) / Fold change /veh C10orf10 (11716521_a_at) / RFU C5orf56 (11738089_at) / Fold change /veh C5orf56 (11738089_at) / RFU CYB561 (11721691_x_at) / Fold change /veh CYB561 (11721691_x_at) / RFU ANKRD19P (11752326_a_at) / Fold change /veh ANKRD19P (11752326_a_at) / RFU OR2T12 /// OR2T33 /// OR2T8 (11738714_s_at) / Fold change /veh OR2T12 /// OR2T33 /// OR2T8 (11738714_s_at) / RFU VCAN (11748164_a_at) / Fold change /veh VCAN (11748164_a_at) / RFU JSRP1 (11732532_at) / Fold change /veh JSRP1 (11732532_at) / RFU KRTAP10-11 (11738290_x_at) / Fold change /veh KRTAP10-11 (11738290_x_at) / RFU MYO3A (11730013_a_at) / Fold change /veh MYO3A (11730013_a_at) / RFU EBF3 (11725865_a_at) / Fold change /veh EBF3 (11725865_a_at) / RFU CAMK2N1 (11719241_x_at) / Fold change /veh CAMK2N1 (11719241_x_at) / RFU C5orf56 (11738088_a_at) / Fold change /veh C5orf56 (11738088_a_at) / RFU OLFML3 (11715873_a_at) / Fold change /veh OLFML3 (11715873_a_at) / RFU LOC100653217 /// NTM (11731650_a_at) / Fold change /veh LOC100653217 /// NTM (11731650_a_at) / RFU MAPK11 (11762145_a_at) / Fold change /veh MAPK11 (11762145_a_at) / RFU FIZ1 (11724087_x_at) / Fold change /veh FIZ1 (11724087_x_at) / RFU OASL (11726364_x_at) / Fold change /veh OASL (11726364_x_at) / RFU SOX15 (11748057_x_at) / Fold change /veh SOX15 (11748057_x_at) / RFU CD79A (11719716_a_at) / Fold change /veh CD79A (11719716_a_at) / RFU HIST1H1D (11736915_at) / Fold change /veh HIST1H1D (11736915_at) / RFU CASKIN2 (11723855_a_at) / Fold change /veh CASKIN2 (11723855_a_at) / RFU LOC730098 (11760151_x_at) / Fold change /veh LOC730098 (11760151_x_at) / RFU OR4N2 (11742367_at) / Fold change /veh OR4N2 (11742367_at) / RFU PRRT2 (11749266_a_at) / Fold change /veh PRRT2 (11749266_a_at) / RFU SNX32 (11753110_a_at) / Fold change /veh SNX32 (11753110_a_at) / RFU CDHR5 (11726645_a_at) / Fold change /veh CDHR5 (11726645_a_at) / RFU RCAN1 (11760418_a_at) / Fold change /veh RCAN1 (11760418_a_at) / RFU FAM167A (11723789_a_at) / Fold change /veh FAM167A (11723789_a_at) / RFU FAM26E (11764081_at) / Fold change /veh FAM26E (11764081_at) / RFU ISYNA1 (11749810_s_at) / Fold change /veh ISYNA1 (11749810_s_at) / RFU ACY1 (11761880_at) / Fold change /veh ACY1 (11761880_at) / RFU 11764098_at / Fold change /veh 11764098_at / RFU SAMD14 (11745864_x_at) / Fold change /veh SAMD14 (11745864_x_at) / RFU NPB (11741838_a_at) / Fold change /veh NPB (11741838_a_at) / RFU TMPRSS6 (11731388_a_at) / Fold change /veh TMPRSS6 (11731388_a_at) / RFU KRTAP10-2 (11738614_at) / Fold change /veh KRTAP10-2 (11738614_at) / RFU ARHGAP8 /// PRR5-ARHGAP8 (11727945_x_at) / Fold change /veh ARHGAP8 /// PRR5-ARHGAP8 (11727945_x_at) / RFU KRTAP5-7 /// NADSYN1 (11734609_at) / Fold change /veh KRTAP5-7 /// NADSYN1 (11734609_at) / RFU RASL12 (11751679_a_at) / Fold change /veh RASL12 (11751679_a_at) / RFU CDKN2B (11736163_a_at) / Fold change /veh CDKN2B (11736163_a_at) / RFU PRF1 (11729649_at) / Fold change /veh PRF1 (11729649_at) / RFU, ZNF638 /// ZNF638-IT1 / Fold change vs veh, ZNF638 /// ZNF638-IT1 / RFU, PANK3 / Fold change vs veh, PANK3 / RFU, SH3YL1 / Fold change vs veh, SH3YL1 / RFU, ZEB2 / Fold change vs veh, ZEB2 / RFU, NRIP1 / Fold change vs veh, NRIP1 / RFU, PTTG1IP / Fold change vs veh, PTTG1IP / RFU, CAPN2 / Fold change vs veh, CAPN2 / RFU, MED14 / Fold change vs veh, MED14 / RFU, SNORA58 / Fold change vs veh, SNORA58 / RFU, C1orf63 / Fold change vs veh, C1orf63 / RFU, LRRFIP1 / Fold change vs veh, LRRFIP1 / RFU, NDUFAF7 / Fold change vs veh, NDUFAF7 / RFU, SLC12A2 / Fold change vs veh, SLC12A2 / RFU, IBTK / Fold change vs veh, IBTK / RFU, ESF1 / Fold change vs veh, ESF1 / Fold change vs veh, TMEM50B / RFU, TAOK1 / Fold change vs veh, TAOK1 / RFU, ACBD3 / Fold change vs veh, ACBD3 / RFU, TMA16 / Fold change vs veh, TMA16 / RFU, RWDD3 / Fold change vs veh, RWDD3 / RFU, BCAT1 / Fold change vs veh, BCAT1 / RFU, EDEM3 / Fold change vs veh, EDEM3 / RFU, TMEM33 / Fold change vs veh, TMEM33 / RFU, WDR75 / Fold change vs veh, WDR75 / RFU, AHCTF1 / Fold change vs veh, AHCTF1 / RFU, TFRC / Fold change vs veh, TFRC / RFU, ZDHHC17 / Fold change vs veh, ZDHHC17 / RFU, NOM1 / Fold change vs veh, NOM1 / RFU, ARL8B / Fold change vs veh, ARL8B / RFU, ZBTB11 / Fold change vs veh, ZBTB11 / RFU, TAMM41 / Fold change vs veh, TAMM41 / RFU, KIAA1704 /// LOC100996395 / Fold change vs veh, KIAA1704 /// LOC100996395 / RFU, ING1 / Fold change vs veh, ING1 / RFU, TRMT61B / Fold change vs veh, TRMT61B / RFU, FUBP3 / Fold change vs veh, FUBP3 / RFU, TP53 / Fold change vs veh, TP53 / RFU, TNKS2 / Fold change vs veh, TNKS2 / RFU, ZFP14 / Fold change vs veh, ZFP14 / RFU, ACTR2 / Fold change vs veh, ACTR2 / RFU, PPP3R1 / Fold change vs veh, PPP3R1 / RFU, PIK3R1 / Fold change vs veh, PIK3R1 / RFU, HNRNPA1 / Fold change vs veh, HNRNPA1 / RFU, RNF170 / Fold change vs veh, RNF170 / RFU, ZNF28 / Fold change vs veh, ZNF28 / RFU, RNGTT / Fold change vs veh, RNGTT / RFU, OGT / Fold change vs veh, OGT / RFU, BRD1 / Fold change vs veh, BRD1 / RFU, MARS / Fold change vs veh, MARS / RFU, ZNF655 / Fold change vs veh, ZNF655 / RFU, FAHD1 / Fold change vs veh, FAHD1 / RFU, BDP1 / Fold change vs veh, BDP1 / RFU, LRRCC1 / Fold change vs veh, LRRCC1 / RFU, ARID1A / Fold change vs veh, ARID1A / RFU, ZNF146 / Fold change vs veh, ZNF146 / RFU, ZNF330 / Fold change vs veh, ZNF330 / RFU, GPN3 / Fold change vs veh, GPN3 / RFU, C9orf123 / Fold change vs veh, C9orf123 / RFU, N4BP2L2 / Fold change vs veh, N4BP2L2 / RFU, ARFIP1 / Fold change vs veh, ARFIP1 / RFU, FAM179B / Fold change vs veh, FAM179B / RFU, BCL10 / Fold change vs veh, BCL10 / RFU, UHRF1BP1L / Fold change vs veh, UHRF1BP1L / RFU, BET1 / Fold change vs veh, BET1 / RFU, CNOT2 / Fold change vs veh, CNOT2 / RFU, ZNF268 / Fold change vs veh, ZNF268 / Fold change vs veh, ZNF507 / RFU, DGCR2 / Fold change vs veh, DGCR2 / RFU, WDSUB1 / Fold change vs veh, WDSUB1 / Fold change vs veh, HSP90B1 /// MIR3652 / RFU, ADSS / Fold change vs veh, ADSS / RFU, GK / Fold change vs veh, GK / RFU, ZNF148 / Fold change vs veh, ZNF148 / RFU, TAF9 / Fold change vs veh, TAF9 / RFU, SLC1A5 / Fold change vs veh, SLC1A5 / RFU, SLMO2 / Fold change vs veh, SLMO2 / RFU, ABCC4 / Fold change vs veh, ABCC4 / RFU, LOC101060439 /// RAP1B / Fold change vs veh, LOC101060439 /// RAP1B / RFU, RFX7 / Fold change vs veh, RFX7 / RFU, GTPBP10 / Fold change vs veh, GTPBP10 / RFU, CNEP1R1 / Fold change vs veh, CNEP1R1 / RFU, BIVM-ERCC5 /// ERCC5 / Fold change vs veh, BIVM-ERCC5 /// ERCC5 / RFU, ILF3 / Fold change vs veh, ILF3 / RFU 11762660_at / Fold change /veh 11762660_at / RFU VCAN (11757783_s_at) / Fold change /veh VCAN (11757783_s_at) / RFU DDX43 (11728927_at) / Fold change /veh DDX43 (11728927_at) / RFU KRT8 (11758188_x_at) / Fold change /veh KRT8 (11758188_x_at) / RFU NKD1 (11759106_at) / Fold change /veh NKD1 (11759106_at) / RFU SRD5A1 (11742802_a_at) / Fold change /veh SRD5A1 (11742802_a_at) / RFU TPSAB1 /// TPSB2 (11721975_s_at) / Fold change /veh TPSAB1 /// TPSB2 (11721975_s_at) / RFU GSTM3 (11746129_a_at) / Fold change /veh GSTM3 (11746129_a_at) / RFU IL23R (11737362_x_at) / Fold change /veh IL23R (11737362_x_at) / RFU TMEM51 (11727254_a_at) / Fold change /veh TMEM51 (11727254_a_at) / RFU PIWIL2 (11732686_x_at) / Fold change /veh PIWIL2 (11732686_x_at) / RFU ORM1 (11744905_x_at) / Fold change /veh ORM1 (11744905_x_at) / RFU CCDC152 (11743942_at) / Fold change /veh CCDC152 (11743942_at) / RFU ECM1 (11717891_a_at) / Fold change /veh ECM1 (11717891_a_at) / RFU IL23R (11748794_a_at) / Fold change /veh IL23R (11748794_a_at) / RFU TNFAIP8L3 (11732012_x_at) / Fold change /veh TNFAIP8L3 (11732012_x_at) / RFU MBOAT4 (11741988_at) / Fold change /veh MBOAT4 (11741988_at) / RFU 11764193_at / Fold change /veh 11764193_at / RFU TMEM53 (11763286_at) / Fold change /veh TMEM53 (11763286_at) / RFU MAGEB2 (11727129_at) / Fold change /veh MAGEB2 (11727129_at) / RFU TMEM200A (11744735_a_at) / Fold change /veh TMEM200A (11744735_a_at) / RFU CCDC152 (11751479_a_at) / Fold change /veh CCDC152 (11751479_a_at) / RFU FAM211A (11726209_a_at) / Fold change /veh FAM211A (11726209_a_at) / RFU RGS16 (11746705_a_at) / Fold change /veh RGS16 (11746705_a_at) / RFU VCAN (11755009_s_at) / Fold change /veh VCAN (11755009_s_at) / RFU RHOB (11743442_s_at) / Fold change /veh RHOB (11743442_s_at) / RFU RGS16 (11720943_a_at) / Fold change /veh RGS16 (11720943_a_at) / RFU RGS16 (11720944_at) / Fold change /veh RGS16 (11720944_at) / RFU, VPS4B / Fold change vs veh, VPS4B / RFU, CREB1 / Fold change vs veh, CREB1 / RFU, DNAJC13 / Fold change vs veh, DNAJC13 / RFU, GNAQ / Fold change vs veh, GNAQ / RFU, CDK5R1 / Fold change vs veh, CDK5R1 / RFU, ZRANB3 / Fold change vs veh, ZRANB3 / RFU, CUL4A / Fold change vs veh, CUL4A / RFU, CCNY / Fold change vs veh, CCNY / RFU, UFL1 / Fold change vs veh, UFL1 / RFU, COG3 / Fold change vs veh, COG3 / RFU, DIAPH2 / Fold change vs veh, DIAPH2 / RFU, SKA2 / Fold change vs veh, SKA2 / RFU, AFF3 / Fold change vs veh, AFF3 / RFU, LMF1 / Fold change vs veh, LMF1 / RFU, IPO11 / Fold change vs veh, IPO11 / RFU, DFFB / Fold change vs veh, DFFB / RFU, FOXP1 / Fold change vs veh, FOXP1 / RFU, CARD8 / Fold change vs veh, CARD8 / RFU, STRN3 / Fold change vs veh, STRN3 / RFU, ADK / Fold change vs veh, ADK / RFU, RASSF2 / Fold change vs veh, RASSF2 / RFU, WIPF1 / Fold change vs veh, WIPF1 / RFU, LARP1B / Fold change vs veh, LARP1B / RFU, RASA1 / Fold change vs veh, RASA1 / RFU, RB1 / Fold change vs veh, RB1 / RFU, PPFIA1 / Fold change vs veh, PPFIA1 / RFU, MAT2A / Fold change vs veh, MAT2A / RFU, CCT5 / Fold change vs veh, CCT5 / RFU, WDR92 / Fold change vs veh, WDR92 / RFU, CUX1 / Fold change vs veh, CUX1 / RFU, TTC7A / Fold change vs veh, TTC7A / RFU, TMEM135 / Fold change vs veh, TMEM135 / RFU, DEPTOR / Fold change vs veh, DEPTOR / RFU, CPM / Fold change vs veh, CPM / RFU, DNAJB6 / Fold change vs veh, DNAJB6 / RFU, CACNA2D3 / Fold change vs veh, CACNA2D3 / RFU, DTX4 / Fold change vs veh, DTX4 / RFU, TFCP2 / Fold change vs veh, TFCP2 / RFU, GMCL1 /// GMCL1P1 / Fold change vs veh, GMCL1 /// GMCL1P1 / RFU, AEBP2 / Fold change vs veh, AEBP2 / RFU, SNHG1 /// SNORD22 /// SNORD25 /// SNORD26 /// SNORD27 /// SNORD28 /// SNORD29 /// SNORD31 / Fold change vs veh, SNHG1 /// SNORD22 /// SNORD25 /// SNORD26 /// SNORD27 /// SNORD28 /// SNORD29 /// SNORD31 / Fold change (Aza/veh), C12orf56 (ProbeSet 11735607_a_at) / Fold change (ACY-1035/veh), C12orf56 (ProbeSet 11735607_a_at) / Fold change (Aza/veh), FGFR1OP (ProbeSet 11751329_s_at) / Fold change (ACY-1035/veh), FGFR1OP (ProbeSet 11751329_s_at) / Fold change (Aza/veh), VPS36 (ProbeSet 11739960_a_at) / Fold change (ACY-1035/veh), VPS36 (ProbeSet 11739960_a_at) / RFU SYPL1 (11715823_x_at) / Fold change /veh SYPL1 (11715823_x_at) / RFU IGFBP7 (11715501_s_at) / Fold change /veh IGFBP7 (11715501_s_at) / RFU REEP3 (11722064_at) / Fold change /veh REEP3 (11722064_at) / RFU IGLL1 (11728026_x_at) / Fold change /veh IGLL1 (11728026_x_at): dose or concentration left out as unconfirmed
Details: MV-4-11 cells, 48 hours

## Nc1ncn([C@@H]2O[C@H](CO)[C@@H](O)[C@H]2O)c(=O)n1 [azacitidine]
  Fold change /veh CLDN22 /// WWC2 (11732394_at): 1.14
